Laboratory results published in patent US20210330611A1, “THERAPY FOR NEUROLOGICAL DISEASES/DISORDERS” (priority 2020, published 2021).
Structures can show the parent of a compound that is named as a salt. Where two headings read alike, the source gives them in different places.

What was measured:
[1] = tested on: LPS-induced microglia activation; assay: Image-based assay of LPS-induced microglia activation (HTS and dose response); type: cell-based, rat; conditions: Rattus norvegicus, Microglia; for inhibition at 10 µM: primary microglia HTS, LPS stimulation, increased cell size (>800 μm^2) as marker of activation, read-out: LPS % inhibition
in vitro [2] = conditions: rat
[3] = tested on: fibrin-induced microglia activation; assay: Image-based assay of fibrin-induced microglia activation (HTS and dose response); type: cell-based, rat; conditions: for IC50 / inhibition at 10 µM: Rattus norvegicus, Microglia; for inhibition at 10 µM: primary microglia HTS, fibrin stimulation, increased cell size (>800 μm^2) as marker of activation, read-out: Fibrin % inhibition
in vitro [4] = conditions: rat, Cell Toxicity IC50 (uM) [cFib assay]
primary rat microglia [5] = assay: Cell toxicity (dead cells, size <150 μm2) in LPS assay; conditions: read-out: Cell Toxicity IC50 (uM) [LPS assay]; LPS assay
primary rat microglia [6] = conditions: rat
[7] = tested on: fibrin- and LPS-induced microglia activation; assay: cells; type: cell-based, rat; conditions: for inhibition at 10 µM: Rattus norvegicus, Microglia
primary rat microglia [8] = conditions: rat; remark: listed apart in the source
[9] = 48 h, Table 1, dose response 0.001-20 μM, triplicates, primary rat microglia, 48 h, read-out: LPS IC50
[10] = LPS-induced microglia activation, dose response, read-out: LPS IC50 (uM) (Suppl. Table 7)
[11] = Table 3, read-out: LPS IC50 (uM) (Suppl. Table 7)
[12] = dose response, LPS-induced microglia activation, read-out: LPS IC50
[13] = 48 h, Table 1, dose response 0.001-20 μM, triplicates, primary rat microglia, 48 h, read-out: Fibrin IC50
[14] = Table 3, read-out: Fibrin IC50 (uM) (Suppl. Table 7)
[15] = dose response, fibrin-induced microglia activation, read-out: Fibrin IC50
[16] = fibrin-induced microglia activation, dose response, read-out: Fibrin IC50 (uM) (Suppl. Table 7)
[17] = HTS of 1907 compounds, quadrant by fibrin and LPS inhibition
[18] = Table 3, read-out: Cherry-picked Hit (Suppl. Table 7)
[19] = HTS hit classification, read-out: Hit
[20] = quadrant by fibrin and LPS inhibition in HTS of 1907 compounds
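Wherever Fibrin % cell toxicity is given: share of dead cells sized under 150 µm2 at 10 µM in fibrin-stimulated microglia HTS.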

| Structure (SMILES) | IC50 [1, 9] | inhibition at 10 µM ([1]; 48 h) | IC50 [1, 10] | IC50 [1, 11] | IC50 [1, 12] | IC50 (in vitro [2]) | Fibrin Selectivity [3] | Fibrin Selectivity (LOG10) [3] | IC50 [3, 13] | IC50 [3, 14] | IC50 [3, 15] | IC50 [3, 16] | IC50 (in vitro [4]; Table 3) | IC50 (in vitro [4]; cFib assay) | IC50 (primary rat microglia [5]) | Quadrant (FIG. 5b) [7, 17] | inhibition at 10 µM [7, 18] | inhibition at 10 µM [7, 19] | Quadrant (FIG. 5b) ([7]; Table 1, screen at 10 μM) | Quadrant (FIG. 5b) ([7]; Table 3, screen at 10 μM) | other results |
| --- | --- | --- | --- | --- | --- | --- | --- | --- | --- | --- | --- | --- | --- | --- | --- | --- | --- | --- | --- | --- | --- |
| O=P(O)(O)C(O)(Cn1ccnc1)P(=O)(O)O [Zoledronic acid, reference compound] | 8 µM | 49% | 8 µM | 8 µM | 8 µM | > 20 µM | 4 | 0.55 | 2 µM | 2 µM | 2 µM | 2 µM | > 20 µM | > 20 µM | > 20 µM | Q3 | > 50% | > 50% | Q3 | Q3 | inhibition at 10 µM [3]: 83%; LPS % cell toxicity (primary rat microglia [6]): 1%; Quadrant (FIG. 5b) [7, 20]: Q3; Fibrin % cell toxicity (primary rat microglia [8]): 2% |
| O=c1[nH]cc(F)c(=O)[nH]1 [Fluorouracil, reference compound] | > 20 µM | 40% | > 20 µM | > 20 µM | > 20 µM | > 20 µM | 3 | 0.44 | 7 µM | 7 µM | 7 µM | 7 µM | > 20 µM | > 20 µM | > 20 µM | Q3 | > 50% | > 50% | Q3 | Q3 | inhibition at 10 µM [3]: 56%; LPS % cell toxicity (primary rat microglia [6]): 1%; Quadrant (FIG. 5b) [7, 20]: Q3; Fibrin % cell toxicity (primary rat microglia [8]): 1% |
| CC(=O)O[C@]1(C(C)=O)CC[C@H]2[C@@H]3C=C(C)C4=CC(=O)CC[C@]4(C)[C@H]3CC[C@@]21C [Megestrol acetate, reference compound] | > 20 µM | 24% | > 20 µM | > 20 µM | > 20 µM | > 20 µM | 4 | 0.63 | 5 µM | 5 µM | 5 µM | 5 µM | > 20 µM | > 20 µM | > 20 µM | Q3 | > 50% | > 50% | Q3 | Q3 | Fibrin % cell toxicity (primary rat microglia [8]): 1% |
| O=C(NC(Cc1cc(=O)[nH]c2ccccc12)C(=O)O)c1ccc(Cl)cc1 (stereo not shown) [Rebamipide, reference compound] | 11 µM | 72% | 11 µM | 11 µM | 11 µM | > 20 µM | 6 | 0.80 | 2 µM | 2 µM | 2 µM | 2 µM | > 20 µM | > 20 µM | > 20 µM | Q2 | > 50% | > 50% | Q2 | Q2 | inhibition at 10 µM [3]: 65%; LPS % cell toxicity (primary rat microglia [6]): 2%; Quadrant (FIG. 5b) [7, 20]: Q2; Fibrin % cell toxicity (primary rat microglia [8]): 1% |
| CC[C@]1(O)C[C@@H]2CN(CCc3c([nH]c4ccccc34)[C@@](C(=O)OC)(c3cc4c(cc3OC)N(C)[C@H]3[C@@](O)(C(=O)OC)[C@H](OC(C)=O)[C@]5(CC)C=CCN6CC[C@]43[C@@H]65)C2)C1 [Vinblastine sulfate, reference compound] | 0.2 µM | 108% | 0.2 µM | 0.2 µM | 0.2 µM | > 20 µM | 11 | 1.05 | 0.02 µM | 0.02 µM | 0.02 µM | 0.02 µM | > 20 µM | > 20 µM | > 20 µM | Q2 | > 50% | > 50% | Q2 | Q2 | IC50 ([1]; Table 7, read-out: LPS_IC50): 0.628 µM; IC50 ([3]; Table 7, read-out: fib_IC50): 1.39 µM; inhibition at 10 µM [3]: 106%; LPS % cell toxicity (primary rat microglia [6]): 8%; Quadrant (FIG. 5b) ([7]; Table 2, screen at 10 μM): Q2; Activity ([7]; Table 7, fib = fibrin, LPS, tox = toxicity): fib/LPS; Quadrant (FIG. 5b) [7, 20]: Q2; Fibrin % cell toxicity (primary rat microglia [8]): 2% |
